Test system: avian influenza virus (H5N1), A/Vietnam/1194/04(H5N1)-NIBRG-14 vaccine strain
Assay type: cell-based

Row | SMILES | Activity | log100TCID50/ml | viral titer lower than that of the control group [log] | CPE inhibitory concentration [µg/mL]
1 | C[C@@H]1O[C@@H](OC[C@H]2O[C@@H](Oc3c(-c4ccc(O)cc4)oc4cc(O)cc(O)c4c3=O)[C@H](O)[C@@H](O)[C@@H]2O)[C@H](O)[C@H](O)[C@H]1O [Compound I, kaempferol 3-O-α-L-rhamnopyranosyl (1→6)-β-D-glucopyranoside] | ◯ (key: ◯: antiviral activity defined as a decrease of 4 log units; X: antiviral activity defined as a decrease of 4 log units) | 5 | 4 | 
2 | O=C(O)[C@H]1O[C@@H](Oc2cc(O)c3c(=O)cc(-c4ccc(O)cc4)oc3c2)[C@H](O)[C@@H](O)[C@@H]1O [Compound II, apigenin 7-O-β-D-glucuronopyranoside] | X (key: ◯: antiviral activity defined as a decrease of 4 log units; X: antiviral activity defined as a decrease of 4 log units) | 0 |  | >10

From patent US20130338090A1, “Novel Compound Isolated from Allium tuberosum and Use Thereof as Antiviral Agent” (priority 2011, published 2013)
